Source: patent US8722580B2, “Agent for inhibiting cytokinin signaling” (Sumitomo Chemical Company, Limited, priority 2006, dated 2014)

Assays:
cytokinin receptor CRE1 = biological target: T1, cytokinin receptor CRE1 (Arabidopsis thaliana, UniProt Q9C5U0, S567G/T1018A); experiment: Inhibition of intracellular signaling from plant-derived cytokinin receptor, growth of transformed yeast cell TM182-CRE1; assay type: cell-based; settings: trans-zeatin 0.6 ppm, chemical substance 2 ppm; for Relative growth rate (%) in test section of test substance to control section, Transformed cell TM182-CRE1: 30° C., 24 hours, turbidity OD 600; for Activity (%) of test substance for inhibiting intracellular signaling from plant-derived cytokinin receptor of cell: = 100 − relative growth rate of TM182-CRE1
T1 construct: expressed in transfected cells; host or cells: Saccharomyces cerevisiae TM182 (sln1Δ) transformed with p415CYC-CRE1
T1 sequence (Q9C5U0 24-1080 S567G/T1018A): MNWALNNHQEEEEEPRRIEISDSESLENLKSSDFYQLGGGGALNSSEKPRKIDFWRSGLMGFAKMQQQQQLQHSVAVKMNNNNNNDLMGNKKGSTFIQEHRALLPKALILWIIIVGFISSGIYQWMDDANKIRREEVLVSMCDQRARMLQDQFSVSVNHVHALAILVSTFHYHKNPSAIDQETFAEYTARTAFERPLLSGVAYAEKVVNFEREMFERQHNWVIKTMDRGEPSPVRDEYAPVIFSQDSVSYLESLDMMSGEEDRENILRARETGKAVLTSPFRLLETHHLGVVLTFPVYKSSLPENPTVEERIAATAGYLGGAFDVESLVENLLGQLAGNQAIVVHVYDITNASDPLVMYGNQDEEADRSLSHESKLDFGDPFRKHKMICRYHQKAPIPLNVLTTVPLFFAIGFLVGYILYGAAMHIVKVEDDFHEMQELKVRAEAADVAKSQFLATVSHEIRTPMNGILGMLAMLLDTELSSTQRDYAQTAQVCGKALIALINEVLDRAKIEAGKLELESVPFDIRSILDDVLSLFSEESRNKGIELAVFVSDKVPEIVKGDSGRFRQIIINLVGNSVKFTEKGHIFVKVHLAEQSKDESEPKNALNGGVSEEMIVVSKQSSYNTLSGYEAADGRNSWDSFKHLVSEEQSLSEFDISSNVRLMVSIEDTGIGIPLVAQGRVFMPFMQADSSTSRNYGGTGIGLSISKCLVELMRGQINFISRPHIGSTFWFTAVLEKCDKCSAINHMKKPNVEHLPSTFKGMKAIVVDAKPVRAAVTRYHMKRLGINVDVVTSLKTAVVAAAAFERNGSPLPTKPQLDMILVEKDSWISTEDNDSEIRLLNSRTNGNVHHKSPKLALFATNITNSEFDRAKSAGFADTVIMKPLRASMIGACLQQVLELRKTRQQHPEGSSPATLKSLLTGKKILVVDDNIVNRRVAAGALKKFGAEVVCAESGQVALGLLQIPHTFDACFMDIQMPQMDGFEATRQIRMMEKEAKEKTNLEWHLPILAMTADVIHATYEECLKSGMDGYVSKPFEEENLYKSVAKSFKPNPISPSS
Protocol: (§1) The transformed cell TM182-CRE1 and the transformed cell TM182-p415CYC1 obtained in Example 6 were each inoculated in 10 ml of a DOLU+Gal medium, and preincubated at 30° C. for 18 hours to obtain a preincubation liquid for each of the transformed cells. The preincubation liquid was diluted with a DOLU+Glu medium for the transformed cell TM182-CRE1 or with a DOLU+Gal medium for the transformed cell TM182-p415CYC1 until OD600=0.1 was reached, to obtain a preincubation dilution for each of the transformed cells.
(§2) To each well of a 96-well plate was added 1 μl of a 200 ppm solution of a test substance in dimethyl sulfoxide (DMSO) to prepare an Assay plate. At the same time, as controls, only 1 μl of DMSO was added to a part of wells. An assay plate for the transformed cell TM182-CRE1 and an assay plate for the transformed cell TM182-p415CYC1 were prepared.
(§3) A 10,000 ppm solution of trans-zeatin (cytokinin) in DMSO was 50-fold diluted with a DOLU+Gul medium to 200 ppm. The 200 ppm trans-zeatin solution was added in an amount of 3/1,000 volume to each of the above-described preincubation dilution to prepare each preincubation dilution containing trans-zeatin at 0.6 ppm. The 0.6 ppm preincubation dilution was added in an amount of 100 μl to each wells of the assay plate for each transformed cell. The plates were incubated at 30° C. for 24 hours. Then, turbidity (OD 600) of each well was measured by using a plate reader. The activity of the test substance for inhibiting intracellular signaling from a plant-derived cytokinin receptor of a cell was tested by comparing the measured turbidity with the turbidity of the control well.
(§4) (Relative growth rate in test section to control section) [%]=[(Turbidity in test section)−(Turbidity in blank)]/[(Turbidity in control section)−(Turbidity in blank)]×100 (Activity of inhibiting intracellular signaling from plant-derived cytokinin receptor of cell) [%]=100−(Relative growth rate in test section to control section)
(§5) In all cases, the existing concentration of trans-zeatin was adjusted to 0.6 ppm and the existing concentration of a chemical substance was adjusted to 2 ppm.
(§6) In all cases, the existing concentration of trans-zeatin was adjusted to 0.6 ppm and the existing concentration of a chemical substance was adjusted to 2 […].

[1] = system: transformed cell TM182-p415CYC1; experiment: Control growth test with transformed yeast cell TM182-p415CYC1 (toxicity to yeast); assay type: cell-based; settings: trans-zeatin 0.6 ppm; chemical substance 2 ppm; 30° C., 24 hours; turbidity OD 600
Protocol: as §1, §2, §3, §4, §5, §6

Arabidopsis thaliana [2] = experiment: Root growth-promoting activity test (Example 9); assay type: in vivo; settings: main root length vs control section, 22° C., 10 days
Protocol: (§7) Enshi standard medium having the following composition (see Table 10) was prepared. To cluster tubes was dispensed each 4 μl of a solution of a chemical substance in DMSO to a final concentration of 0.001 ppm to 10 ppm, and then, was dispensed each 600 μl of the sterilized Enshi standard medium. Then the resulting solution was well mixed. In each of the cluster tubes, 10-20 seeds of Arabidopsis thaliana were sown, and cultured at 22° C. for 10 days in the light. Then, the length of main roots (average main roots) generated from the seeds of Arabidopsis thaliana was measured. An average of eight repeats was determined, and a root growth rate was determined according to the following equation.
(§8) Root growth rate (%)=(Average main root length in chemical substance-treated section)/(Average main root length in control section)×100

Arabidopsis thaliana [3] = experiment: Root growth-promoting activity test (Example 22); assay type: in vivo; settings: main root length vs control section, 22° C., 10 days
Protocol: as §7, with “18)” for “10)”
as §8
Enshi standard medium determined having the following composition (Table 18) was prepared. A DMSO solution of a chemical substance was dispensed by 4 μl to cluster tubes to a final concentration of 0.001 ppm to 10 ppm and the sterilized Enshi standard medium was dispensed by 600 μl and then the resulting solution was well mixed. 10-20 seeds of A. thaliana per cluster tube were sown in the cluster tubes. After culture at 22° C. for 10 days in bright light, the length of main roots (average main roots) took from seeds of A. thaliana was measured. An average of eight repeats was determined and the root growth rate was determined.
Root growth rate (%)=(Average main root length of chemical substance-treated section)/(Average main root length of control section)×100

[4] = test final concentration 2.5 ppm (concentration with highest root growth rate)
[5] = test final concentration 2.5 ppm (highest root growth rate)
[6] = test final concentration 1.25 ppm (concentration with highest root growth rate)
[7] = test final concentration 1.25 ppm (highest root growth rate)
[8] = test final concentration 10 ppm (concentration with highest root growth rate)
[9] = test final concentration 10 ppm (highest root growth rate)

| Structure (SMILES) | Relative growth rate (%) in test section of test substance to control section, Transformed cell TM182-CRE1 (cytokinin receptor CRE1) | Activity (%) of test substance for inhibiting intracellular signaling from plant-derived cytokinin receptor of cell (cytokinin receptor CRE1) | Relative growth rate (%) in test section of test substance to control section, Transformed cell TM182-p415CYC1 [1] | Root growth-promoting activity (root growth rate) (Arabidopsis thaliana [2]; [8]) | Root growth-promoting activity (root growth rate) (Arabidopsis thaliana [3]; [9]) | also measured |
| --- | --- | --- | --- | --- | --- | --- |
| OCCCCCNc1nc(-c2ccccc2)c2cc(Cl)ccc2n1 [Ic3-5] | 3.5% | 96.5% | 115.4% | – | – | Root growth-promoting activity (root growth rate) (Arabidopsis thaliana [2]; test final concentration 0.625 ppm (concentration with highest root growth rate)): 134.0%; Root growth-promoting activity (root growth rate) (Arabidopsis thaliana [3]; test final concentration 0.625 ppm (highest root growth rate)): 134.0% |
| COC(=O)CCNc1nc(-c2ccccc2)c2cc(Cl)ccc2n1 [Ic3-43] | 0.8% | 99.2% | 122.0% | – | – | Root growth-promoting activity (root growth rate) (Arabidopsis thaliana [2]; [4]): 137.9%; Root growth-promoting activity (root growth rate) (Arabidopsis thaliana [3]; [5]): 137.9% |
| OCC(O)CNc1nc(-c2ccccc2)c2cc(Cl)ccc2n1 (stereo not shown) [Ic3-41] | 8.8% | 91.2% | 123.3% | – | – | Root growth-promoting activity (root growth rate) (Arabidopsis thaliana [2]; test final concentration 5 ppm (concentration with highest root growth rate)): 134.5%; Root growth-promoting activity (root growth rate) (Arabidopsis thaliana [3]; test final concentration 5 ppm (highest root growth rate)): 134.5% |
| CC(CO)Nc1nc(-c2ccccc2)c2cc(Cl)ccc2n1 (stereo not shown) [Ic3-44] | 7.0% | 93.0% | 101.4% | – | – | Root growth-promoting activity (root growth rate) (Arabidopsis thaliana [2]; [6]): 126.5%; Root growth-promoting activity (root growth rate) (Arabidopsis thaliana [3]; [7]): 126.5% |
| CC(CO)CCNc1nc(-c2ccccc2)c2cc(Cl)ccc2n1 (stereo not shown) [Ic3-12] | 5.6% | 94.4% | 90.9% | – | – | Root growth-promoting activity (root growth rate) (Arabidopsis thaliana [2]; [6]): 128.9%; Root growth-promoting activity (root growth rate) (Arabidopsis thaliana [3]; [7]): 128.9% |
| OCCCNc1nc(-c2ccccc2)c2cc(Cl)cc(Cl)c2n1 [Ic12-1] | 2.8% | 97.2% | 106.3% | – | – | Root growth-promoting activity (root growth rate) (Arabidopsis thaliana [2]; [4]): 184.6%; Root growth-promoting activity (root growth rate) (Arabidopsis thaliana [3]; [5]): 184.6% |
| CC(C)Nc1nc(-c2ccccc2)c2cc(Cl)ccc2n1 [Ic3-28] | – | – | – | 120.4% | 120.4% | – |
| C=CCNc1nc(-c2ccccc2)c2cc(Cl)ccc2n1 [Ic3-29] | 1.6% | 98.4% | 92.7% | 122.4% | 122.4% | – |
| CC(O)CNc1nc(-c2ccccc2)c2cc(Cl)ccc2n1 (stereo not shown) [Ic3-39] | −1.3% | 101.3% | 108.1% | 169.0% | 169.0% | – |
| CCCNc1nc(-c2ccccc2)c2cc(Cl)ccc2n1 [Ic3-8] | – | – | – | – | – | Root growth-promoting activity (root growth rate) (Arabidopsis thaliana [2]; [6]): 136.4%; Root growth-promoting activity (root growth rate) (Arabidopsis thaliana [3]; [7]): 136.4% |
| OCCCNc1nc(-c2ccccc2)c2ccc(Cl)cc2n1 [Ic10-1] | – | – | – | 163.6% | 163.6% | – |
| CC(C)CCNc1nc(-c2ccccc2)c2cc(Cl)ccc2n1 [Ic3-10] | – | – | – | 120.6% | 120.6% | – |
| CCNc1nc(-c2ccccc2)c2cc(Cl)ccc2n1 [Ic3-24] | 2.1% | 97.9% | 112.5% | – | – | Root growth-promoting activity (root growth rate) (Arabidopsis thaliana [2]; [6]): 122.8%; Root growth-promoting activity (root growth rate) (Arabidopsis thaliana [3]; [7]): 122.8% |
| OCCCNc1nc(-c2ccccc2)c2cc(C(F)(F)F)ccc2n1 [Ic6-2] | – | – | – | – | – | Root growth-promoting activity (root growth rate) (Arabidopsis thaliana [2]; [4]): 155.9%; Root growth-promoting activity (root growth rate) (Arabidopsis thaliana [3]; [5]): 155.9% |
| N#Cc1ccc2nc(NCCCO)nc(-c3ccccc3)c2c1 [Ic9-1] | – | – | – | 141.5% | 141.5% | – |
| CC(C)=CCNc1nc(-c2ccccc2)c2cc(Cl)ccc2n1 [Ic3-17] | – | – | – | 121.3% | 121.3% | – |
| OCCCNc1nc(-c2ccccc2)c2c(Cl)cccc2n1 [Ic1-1] | – | – | – | – | – | Root growth-promoting activity (root growth rate) (Arabidopsis thaliana [2]; [4]): 150.9%; Root growth-promoting activity (root growth rate) (Arabidopsis thaliana [3]; [5]): 150.9% |
| Clc1cc(Cl)c2nc(NCc3ccco3)nc(-c3ccccc3)c2c1 [Ic12-3] | – | – | – | – | – | Root growth-promoting activity (root growth rate) (Arabidopsis thaliana [2]; [4]): 138.8%; Root growth-promoting activity (root growth rate) (Arabidopsis thaliana [3]; [5]): 138.8% |
| CN(C)c1nc(-c2ccccc2)c2cc(Cl)ccc2n1 [Ic3-25] | 6.0% | 94.0% | 122.0% | 140.0% | – | – |
